Experiments:
Assay in all cases: Enzyme Assay and Determination of the Inhibition Constants
Coagulation factor X = Coagulation factor X (Homo sapiens, UniProt P00742)
Method: (§1) Each enzyme was assayed with a set of different concentrations of each inhibitor. […] Ki(apparent) values were calculated from enzyme velocity curves using the software package BatchKi (BioKin Ltd, Madison, WI). These apparent inhibition constants were then converted to Ki values by assuming competitive inhibition and using the formula Ki = Ki(apparent)/(1 + S/Km).

Serine protease 1 [1] = target: T1, Serine protease 1 (Bos taurus, UniProt P00760)
T1 sequence (P00760 whole entry): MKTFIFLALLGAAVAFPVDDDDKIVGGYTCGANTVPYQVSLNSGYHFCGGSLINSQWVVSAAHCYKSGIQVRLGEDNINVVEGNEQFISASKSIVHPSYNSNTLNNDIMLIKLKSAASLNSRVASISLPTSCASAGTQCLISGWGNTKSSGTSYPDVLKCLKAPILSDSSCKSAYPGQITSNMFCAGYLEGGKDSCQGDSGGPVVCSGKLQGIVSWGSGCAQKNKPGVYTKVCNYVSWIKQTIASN
Method: as §1

Serine protease 1 [2] = target: Serine protease 1 (Homo sapiens, UniProt P07477)
Serine protease 1 (Homo sapiens, UniProt P07477), sequence (P07477 whole entry): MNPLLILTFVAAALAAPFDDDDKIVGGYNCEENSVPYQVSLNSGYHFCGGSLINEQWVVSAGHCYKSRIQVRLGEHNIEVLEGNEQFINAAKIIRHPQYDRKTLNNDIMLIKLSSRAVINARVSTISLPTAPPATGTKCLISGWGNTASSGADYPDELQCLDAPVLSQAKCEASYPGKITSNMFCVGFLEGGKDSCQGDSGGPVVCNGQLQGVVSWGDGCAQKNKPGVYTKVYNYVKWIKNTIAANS
Method: as §1

[3] = target: Urokinase-type plasminogen activator (Homo sapiens, UniProt P00749)
Method: as §1

Prothrombin = Prothrombin (Homo sapiens, UniProt P00734)
Method: as §1

Coagulation factor X, sequence (P00742 41-179 limits assumed): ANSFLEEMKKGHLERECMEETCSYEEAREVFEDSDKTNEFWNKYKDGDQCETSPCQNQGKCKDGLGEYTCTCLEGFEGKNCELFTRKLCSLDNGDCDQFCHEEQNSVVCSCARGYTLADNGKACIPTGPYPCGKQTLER
Coagulation factor X, sequence (P00742 235-488 limits assumed): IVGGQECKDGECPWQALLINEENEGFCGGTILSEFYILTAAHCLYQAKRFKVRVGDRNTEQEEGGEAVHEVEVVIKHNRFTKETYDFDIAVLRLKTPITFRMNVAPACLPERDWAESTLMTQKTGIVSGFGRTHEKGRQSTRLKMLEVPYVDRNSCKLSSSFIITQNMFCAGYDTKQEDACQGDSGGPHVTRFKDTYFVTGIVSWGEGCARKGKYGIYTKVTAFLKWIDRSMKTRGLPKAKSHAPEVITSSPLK

## Cc1cc(-c2ccccc2)c(O)c(-c2cc3cc(C(=N)N)ccc3[nH]2)c1 [2-{5-[amino(iminiumyl)methyl]-1H-indol-2-yl}-4-methyl-6-phenylbenzen-1-olate]
Coagulation factor X
  Ki: 180 nM
Serine protease 1 [1]; pH 7.6, 22 °C
  Ki: 15 nM
Serine protease 1 [2]
  Ki: 380 nM
[3]
  Ki: 340 nM

## N=C(N)c1ccc2nc(-c3cc([C@@H](CC(=O)O)C(=O)O)cc(-c4ccccc4)c3O)[nH]c2c1 [(2R)-2-(3-{5-[amino(iminiumyl)methyl]-1H-1,3-benzodiazol-2-yl}-4-oxido-5-phenylphenyl)butanedioate]
Coagulation factor X
  Ki: 1200 nM
Prothrombin
  Ki: 160000 nM
Serine protease 1 [1]
  Ki: 290 nM
Serine protease 1 [2]
  Ki: 3700 nM
[3]
  Ki: 120 nM

## N=C(N)c1ccc2nc(-c3cc([N+](=O)[O-])ccc3O)[nH]c2c1 [2-{5-[amino(iminiumyl)methyl]-1H-1,3-benzodiazol-2-yl}-4-nitrobenzen-1-olate]
Coagulation factor X
  Ki: 7300 nM
Prothrombin
  Ki: 23000 nM
Serine protease 1 [1]; pH 6.1, 22 °C
  Ki: 470 nM
[3]
  Ki: 5100 nM

## N=C(N)c1ccc2[nH]c(-c3ccccc3O)cc2c1 [2-{5-[amino(iminiumyl)methyl]-1H-indol-2-yl}benzen-1-olate]
Coagulation factor X
  Ki: 2400 nM
Prothrombin
  Ki: 12000 nM
Serine protease 1 [1]; pH 8.04, 22 °C
  Ki: 600 nM
Serine protease 1 [2]
  Ki: 4900 nM
[3]
  Ki: 2900 nM

## N=C(N)c1ccc2[nH]c(-c3cc(Cl)cc(-c4ccccc4)c3O)cc2c1 [2-{5-[amino(iminiumyl)methyl]-1H-indol-2-yl}-4-chloro-6-phenylbenzen-1-olate]
Coagulation factor X
  Ki: 250 nM
Prothrombin
  Ki: 1000 nM
Serine protease 1 [1]
  Ki: 13 nM
Serine protease 1 [2]
  Ki: 540 nM
[3]
  Ki: 590 nM

## N=C(N)c1cc2nc(-c3cccc(-c4ccccc4)c3O)[nH]c2cc1F [2-{5-[amino(iminiumyl)methyl]-6-fluoro-1H-1,3-benzodiazol-2-yl}-6-phenylbenzen-1-olate]
Serine protease 1 [1]; pH 7.5, 22 °C
  Ki: 230 nM
Serine protease 1 [2]
  Ki: 12000 nM
[3]
  Ki: 280 nM

## N=C(N)c1ccc2[nH]c(-c3cc([C@@H](CC(=O)O)C(=O)O)cc(Br)c3O)cc2c1 [(2R)-2-(3-{5-[amino(iminiumyl)methyl]-1H-indol-2-yl}-5-bromo-4-oxidophenyl)butanedioate]
Coagulation factor X
  Ki: 48 nM
Prothrombin
  Ki: 1700 nM
Serine protease 1 [1]
  Ki: 240 nM
Serine protease 1 [2]
  Ki: 1700 nM
